Like-named read-outs stand apart in the source and are kept apart here.
How the values were obtained:
[1] = system: LoVo/Dx (drug resistant subline of LoVo); assay: MTT assay, LoVo/Dx; format: cell-based; details: Homo sapiens, 48 h incubation, read-out: IC50 [µM] ± SD LoVo/Dx
Text: (§1) The MTT (3-[4,5-dimethylthiazol-2-yl]-2,5-diphenyl tetrazolium bromide) assay was used to determine the cytotoxicity of tested compounds towards different cell lines: normal human dermal fibroblasts (NHDF), kidney epithelial cells (VERO), fibroblasts from Chinese hamster lung (V79) and four human cancer cells: A549 (pulmonary basal cell alveolar adenocarcinoma), MCF-7 (breast adenocarcinoma), LoVo (colon adenocarcinoma), and its drug resistant subline LoVo/Dx. The cell lines used in this study express COX-1 and COX-2. The LoVo line expressed COX-1, the LoVo/Dx subline express both COX-1 and COX-2 [61].
Each cell line was grown in the culture media recommended by supplier. Before the test they were detached with trypsin/EDTA solution, then to neutralize the effect of Trypsin/EDTA solution, FBS containing medium was used. After centrifugation the cells were stained with 0.4% solution of trypan blue, counted and inspected for viability using microscope. […] The number of cells was 2 × 10^3 cells per well. The tested compounds with different concentrations (5, 10, 20, 50, 100 µM) were dissolved in DMSO and then added to the cells (the final DMSO concentration was 0.1%). The cultures were incubated for another 48 h. After that time the cells were collected to be used in tests.
MTT assay was used to find out how tested compounds influence the metabolic activity of investigated cell lines. The cells were incubated with tested compounds. […] The medium was removed again, and formazan crystals were dissolved in isopropanol.

LoVo cell line = assay: Intracellular ROS level (DCFH-DA), LoVo cells; format: cell-based; details: Homo sapiens, 4 h, compound 100 μM
Protocol: (§2) Two cell lines were chosen for investigations: V79 (Chinese hamster lung fibroblasts) and LoVo. V79 normal cells are widely used as the cell line tested in the studies of the oxidative stress. These cells are a living system model to explain the mechanism of ROS effects caused by varied compounds [73].
(§3) First, the tested compounds (in concentration of 100 μM) were added to the cell cultures and cells were incubated for 4 h. Then cells were washed and incubated with DCFH-DA (non-fluorescent probe) in dark at 37 °C for 2 h at CO2 [79]. Non-fluorescent, non-polar DCFH-DA (2′7′-dichlorodihydrofluorescein diacetate) at concentration of 25 μM was used as a marker of oxidative stress to determine the intracellular ROS levels. […] In this time, DCFH-DA which penetrated into the cells, was hydrolyzed by esterases to polar, non-fluorescent DCFH (2′7′-dichlorodihydrofluorescein) and then oxidized in the presence of ROS (reactive oxygen species) to fluorescent DCF (2′7′-dichlorofluorescein). DCF was measured using Varioscan LUX microplate reader (Thermo Fisher Scientific, Waltham, MA, USA) at λex = 485 nm and λem = 535 nm.
(§4) E is the culture with the tested compound and E0 is the negative control without the compound. The routine statistical methods: two-way analysis of variance ANOVA as well as Tukey’s post-hoc test were used. It allowed us to determine the statistical significance of results, where p < 0.05 was set as significant. The statistical indicators were estimated using Statistica 13.3 software.

V79 cell line = assay: Intracellular ROS level (DCFH-DA), V79 cells; format: cell-based, Chinese hamster; details: Cricetulus griseus, 4 h, V79, compound 100 μM
Protocol: as §2
as §3, with “nm. Then results were presented as E/E0 where E is test sample value and E0—control value.” for “nm.”
as §4, with “[…] E is” for “E is”

[2] = system: NHDF (normal human dermal fibroblasts); assay: MTT assay, NHDF; format: cell-based; details: 48 h incubation, read-out: IC50 [µM] ± SD NHDF
Text: as §1
Each cell line was grown in the culture media recommended by supplier. Before the test they were detached with trypsin/EDTA solution, then to neutralize the effect of Trypsin/EDTA solution, FBS containing medium was used. After centrifugation the cells were stained with 0.4% solution of trypan blue, counted and inspected for viability using microscope. In the end, cells were inserted into 96-well culture plates and incubated in CO2 incubator (37 °C, 24 h). The number of cells was 2 × 10^3 cells per well. The tested compounds with different concentrations (5, 10, 20, 50, 100 µM) were dissolved in DMSO and then added to the cells (the final DMSO concentration was 0.1%). The cultures were incubated for another 48 h. After that time the cells were collected to be used in tests.
MTT assay was used to find out how tested compounds influence the metabolic activity of investigated cell lines. The cells were incubated with tested compounds. After removing of supernatant, 1 mg/mL of MTT solution in MEM was added to the plate (to each well) and then the plates were incubated at 37 °C for 2 h. The medium was removed again, and formazan crystals were dissolved in isopropanol. A Varioscan LUX microplate reader (Thermo Fisher Scientific, Waltham, MA, USA) was used to measure absorbance at 570 nm.

[3] = with H2O2 (100 μM, 30 min), n = 5, read-out: ROS scavenging activity, Mean E/E0 ± SD, with H2O2
[4] = without H2O2, n = 5, read-out: ROS scavenging activity, Mean E/E0 ± SD, without H2O2

SMILES | IC50 [1] | activity at 100 µM (LoVo cell line; [3]) | activity at 100 µM (LoVo cell line; [4]) | activity at 100 µM (V79 cell line; [3]) | activity at 100 µM (V79 cell line; [4]) | IC50 [2]
Cc1cc(C)c(C(=O)NCc2nn(CC(=O)NN=Cc3ccccc3Br)c(=S)o2)c(S)n1 [Compound 13, 4,6-Dimethyl-N-{[4-(2-(2-(2-bromobenzylidene)hydrazinyl)-2-oxoethyl)-5-sulfanylidene-4,5-dihydro-1,3,4-oxadiazole-2-yl]methyl}-2-sulfanylpyridine-3-carboxamide] | 9.4 ± 5.97 µM | 69 ± 10% | 70 ± 30% | 50 ± 15% | 59 ± 8% | 59.3 ± 3.43 µM
Cc1ccc(C=NNC(=O)Cn2nc(CNC(=O)c3c(C)cc(C)nc3S)oc2=S)cc1 [Compound 7, 4,6-Dimethyl-N-{[4-(2-(2-(4-methylbenzylidene)hydrazinyl)-2-oxoethyl)-5-sulfanylidene-4,5-dihydro-1,3,4-oxadiazole-2-yl]methyl}-2-sulfanylpyridine-3-carboxamide] | 7.89 ± 1.78 µM | 95 ± 27% | 107 ± 38% | 81 ± 23% | 103 ± 39% | 58.2 ± 2 µM
CSc1ccc(/C=N\NC(=O)Cn2nc(CNC(=O)c3c(C)cc(C)nc3S)oc2=S)cc1 [Compound 8, 4,6-Dimethyl-N-{[4-(2-(2-(4-methysulfanylbenzylidene)hydrazinyl)-2-oxoethyl)-5-sulfanylidene-4,5-dihydro-1,3,4-oxadiazole-2-yl]methyl}-2-sulfanylpyridine-3-carboxamide] | 21 ± 5.92 µM | 80 ± 22% | 65 ± 20% | 72 ± 11% | 85 ± 29% | 58.7 ± 1.94 µM
Cc1cc(C)c(C(=O)NCc2nn(CC(=O)NN=Cc3ccc(C#N)cc3)c(=S)o2)c(S)n1 [Compound 9, 4,6-Dimethyl-N-{[4-(2-(2-(4-cyanobenzylidene)hydrazinyl)-2-oxoethyl)-5-sulfanylidene-4,5-dihydro-1,3,4-oxadiazole-2-yl]methyl}-2-sulfanylpyridine-3-carboxamide] | 6.87 ± 1.45 µM | 91 ± 19% | 76 ± 22% | 71 ± 12% | 78 ± 31% | 59.4 ± 1.9 µM
Cc1cc(C)c(C(=O)NCc2nn(CC(=O)NN=Cc3ccc(Cl)cc3)c(=S)o2)c(S)n1 [Compound 10, 4,6-Dimethyl-N-{[4-(2-(2-(4-chlorobenzylidene)hydrazinyl)-2-oxoethyl)-5-sulfanylidene-4,5-dihydro-1,3,4-oxadiazole-2-yl]methyl}-2-sulfanylpyridine-3-carboxamide] | 22.3 ± 2.1 µM | 91 ± 14% | 85 ± 27% | 82 ± 37% | 73 ± 27% | 59.9 ± 2.04 µM
Cc1cc(C)c(C(=O)NCc2nn(CC(=O)NN=Cc3ccccc3)c(=S)o2)c(S)n1 [Compound 5, 4,6-Dimethyl-N-{[4-(2-(2-benzylidenehydrazinyl)-2-oxoethyl)-5-sulfanylidene-4,5-dihydro-1,3,4-oxadiazol-2-yl]methyl}-2-sulfanylpyridine-3-carboxamide] | 5.69 ± 1.03 µM | 87 ± 21% | 72 ± 21% | 59 ± 21% | 82 ± 13% | 59 ± 1.49 µM
Cc1cc(C)c(C(=O)NCc2nn(CC(=O)NN=Cc3ccc(C(F)(F)F)cc3)c(=S)o2)c(S)n1 [Compound 11, 4,6-Dimethyl-N-{[4-(2-(2-(4-trifluoromethylbenzylidene)hydrazinyl)-2-oxoethyl)-5-sulfanylidene-4,5-dihydro-1,3,4-oxadiazole-2-yl]methyl}-2-sulfanylpyridine-3-carboxamide] | 17.5 ± 8.73 µM | 84 ± 17% | 124 ± 65% | 112 ± 20% | 67 ± 24% | 59 ± 3.62 µM
Cc1cc(C)c(C(=O)NCc2nn(CC(=O)NN=Cc3ccc(F)cc3)c(=S)o2)c(S)n1 [Compound 6, 4,6-Dimethyl-N-{[4-(2-(2-(4-fluorobenzylidene)hydrazinyl)-2-oxoethyl)-5-sulfanylidene-4,5-dihydro-1,3,4-oxadiazole-2-yl]methyl}-2-sulfanylpyridine-3-carboxamide] | 7.07 ± 2.48 µM | 88 ± 4% | 74 ± 22% | 97 ± 11% | 82 ± 17% | 58.2 ± 0.92 µM
Cc1cc(C)c(C(=O)NCc2nn(CC(=O)NN=Cc3cccc(Cl)c3)c(=S)o2)c(S)n1 [Compound 12, 4,6-Dimethyl-N-{[4-(2-(2-(3-chlorobenzylidene)hydrazinyl)-2-oxoethyl)-5-sulfanylidene-4,5-dihydro-1,3,4-oxadiazole-2-yl]methyl}-2-sulfanylpyridine-3-carboxamide] | 22.6 ± 8.19 µM | 79 ± 16% | 91 ± 43% | 62 ± 25% | 68 ± 27% | 58.7 ± 2.21 µM
Cc1cc(C)c(C(=O)NCc2nn(CC(=O)NN)c(=S)o2)c(S)n1 [Compound 4, N-{[4-(2-hydrazinyl-2-oxoethyl)-5-sulfanylidene-4,5-dihydro-1,3,4-oxadiazol-2-yl]methyl}-4,6-dimethyl-2-sulfanylpyridine-3-carboxamide] | 5.73 ± 3.84 µM | 83 ± 8% | 69 ± 33% | 42 ± 8% | 53 ± 22% | 57.5 ± 1.22 µM
